This is an account of results in EP4494466A1, “SULFUR-CONTAINING COMPOUNDS AND USE THEREOF” (Consejo Superior de Investigaciones Científicas (CSIC), priority 2023, dated 2025).

Assay [1] deals with Aspergillus niger. Briefly: Antifungal activity, spore germination inhibition growth assay (MTT). It is filed as cell-based. The conditions noted are these: A. niger spores, 24 h incubation at 28 °C, 4 replicates. Here is the method: (§1) The fungal species Aspergillus niger and Botrytis cinerea came from the fungal collection of institute de Ciencias Agrarias-CSIC, Madrid, Spain where they are maintained. The antifungal activity of the hydrolate extract and fractions were determined using a modified spore germination inhibition growth assay (Sainz, P. et al. Chemical composition and biological activities of Artemisia pedemontana subsp. assoana essential oils and hydrolate. Biomol. 2019, 9). The hydrolate extract or fractions were dissolved in dimethyl sulfoxide (DMSO) at 1% and evaluated at the final concentrations indicated.
(§2) The spore suspensions were 7.5 × 10^5 cells/mL in NaCl 0.9% for A. niger and 1 × 10^7 cells/mL in distilled water for B. cinerea. Amphotericin B (5 µg/mL) was used as a positive control. The samples and spore suspensions (4 replicates) were placed on 96-well plates and incubated for 24 h (28 °C for A. niger and 25 °C for B. cinerea). After the incubation process, 25 µL of an MTT (5 mg/mL) plus menadione (1 mM) solution in RMPIMOPS were added, the plates were incubated again for 3 h, the medium was removed, 200 µL of acidic isopropanol (95% isopropanol and 5% 1 M HCl) was added, and the plates were incubated for another 30 min. The absorbance was read at 490 nm in an Elisa reader. The IC50 values (the effective dose to give 50% inhibition) were calculated by a regression curve of % spore germination inhibition on log dose.

Assay [2] deals with H. lusitanicum. Briefly: Ixodicidal activity on larvae, cellulose contact toxicity. In kind it is in vivo, Hyalomma lusitanicum. The conditions noted are these: 24 h contact with treated cellulose, Probit Analysis. Here is the method: H. lusitanicum engorged female ticks were collected in central Spain (Finca La Garganta, Ciudad Real) from their host (deer) and maintained at 22-24 °C and 70% RH until oviposition and egg hatching. Resulting larvae (4-6 weeks old) were used for the bioassays (Galisteo Pretel, A. et al. Germacrone derivatives as new insecticidal and acaricidal compounds: a structure-activity relationship. Mol. 2019, 24). Briefly, 50 µL of test solution were added to 25 mg of powdered cellulose at different concentrations (initial concentration of 20 mg/ml) and the solvent was evaporated. For each test, three replicates with 20 larvae each were used. Dead ticks were counted after 24 h of contact with the treated cellulose at the environmental conditions described, using a binocular magnifying glass. The larvicidal activity data are presented as percent mortality corrected according to Schneider-Orelli's formula (Schneider-Orelli, O. Entomologisches praktikum: Einführung in die land- und forstwirtschaftliche Insektenkunde; aus dem entomologischen institut der eidgenössischen technischen hochschule in Zürich; Sauerländer, 1947). Effective lethal doses (LC50 and LC90, the concentration that kills 50% or 90% of the organisms, respectively) were calculated by Probit Analysis (5 serial dilutions, STATGRAPHICS Centurion XVI, version 16.1.02, Statgraphics Technologies, Inc, P.O. Box 134, The Plains, Virginia 20198, USA).

In assay [3] the test system is Botrytis cinerea. Description: Antifungal activity, spore germination inhibition growth assay (MTT). In kind it is cell-based. The conditions noted are these: B. cinerea spores, 24 h incubation at 25 °C, 4 replicates. Here is the method: as §1, §2

The structures appear in SMILES notation.

On to `C=CCSCC(C=O)=CC` [Compound 1, 2-((allylthio)methyl)but-2-enal], for which the “LD50 (95% Confidence Limits)” value in assay [1] is reported as 78.07 (63.96-95.28)µg/mL. In assay [2], the “LD50 (95% Confidence Limits)” value was 8.42 (7.72-10.07) µg/mg and the “LD90 (95% Confidence Limits)” value is 15.62 (13.79-18.38) µg/mg.
For `O=CC1=CCCSC1` [Compound 3, 5,6-dihydro-2H-thiopyran-3-carbaldehyde], the “LD50 (95% Confidence Limits)” value was 16.96 (7.98-36.03) µg/mL in assay [1] and 8.79 (5.36-14.43) µg/mL in assay [3]. In addition, the “LD90 (95% Confidence Limits)” value in assay [2] was 3.57 (3.20-4.23) µg/mg.
